The numbers were not newly measured in patent US6800435B2, “Insect sodium channels from insecticide-susceptible and insecticide-resistant house flies” (Cornell Research Foundation, Inc., priority 1996, dated 2004), which cites them from elsewhere.

The data set relates to resistant (538ge) house fly strain. Particulars: kdr trait, adult flies, Sawicki 1978.

`Clc1ccc(C(c2ccc(Cl)cc2)C(Cl)(Cl)Cl)cc1` [DDT, 1,1-bis-(4-chlorophenyl)-2,2,2-trichloroethane]: the “doses required to kill approximately 50% of the treated individuals” value is reported as “approximately 0.5 μg per adult fly”.
